Data published in patent US20140005163A1 (NOVARTIS AG, priority 2010, published 2014).
Values after ≈ are worked out from the molar mass of the structure shown.

Tests used:
[1] = tested on: PKB Ser473 phosphorylation in Rat1-myr-HA-p110 delta cells; assay: Reverse protein array assay, PKB Ser473 phosphorylation in Rat1-myr-p110 delta cells; assay type: cell-based; conditions: read-out: p-PKB IC50
In short: (§1)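 Cells: Rat1-myr-HA-p110 alpha/beta/delta, seeded ≥20 h. Lysis on ice 10 min; reverse-phase protein array, 4 lysate dilutions; fluorescence read, relative intensity.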

Solubility at pH 6.8 = assay type: physicochemical; conditions: pH 6.8, aqueous buffer, thermodynamic from solid; read-out: solubility
In short: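 Solubility was measured at pH 6.8 following the cited Zhou et al. (2007) procedure.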

[2] = Cellular CaCo2 permeability assay from apical to basal (A-B); assay type: in vitro ADME; conditions: human, Caco-2, read-out: Pe A-B (permeability)
From the text: The permeability in 10^−6 cm/s of compounds of formula (I) have been confirmed for selected example using a cellular CaCo2 permeability assay from apical to basal (A-B): […]

[3] = tested on: PKB Ser473 phosphorylation in Rat1-myr-HA-p110 alpha cells; assay: Reverse protein array assay, PKB Ser473 phosphorylation in Rat1-myr-p110 alpha cells; assay type: cell-based; conditions: 0.5 h, pAkt Ser473, 30 minutes compound incubation, read-out: p-PKB IC50
In short: as §1

PI3K gamma = molecular target: T1, PI3K gamma (Homo sapiens, UniProt P48736); assay: PI3K gamma kinase assay (Kinase-Glo luminescence); assay type: biochemical
T1 construct: His tag (C); made in house; host or cells: baculovirus (pVL1393); Tn5 or TiniPro insect cells; construct from Roger Williams lab, MRC LMB
T1 sequence (P48736 144-1102 limits assumed): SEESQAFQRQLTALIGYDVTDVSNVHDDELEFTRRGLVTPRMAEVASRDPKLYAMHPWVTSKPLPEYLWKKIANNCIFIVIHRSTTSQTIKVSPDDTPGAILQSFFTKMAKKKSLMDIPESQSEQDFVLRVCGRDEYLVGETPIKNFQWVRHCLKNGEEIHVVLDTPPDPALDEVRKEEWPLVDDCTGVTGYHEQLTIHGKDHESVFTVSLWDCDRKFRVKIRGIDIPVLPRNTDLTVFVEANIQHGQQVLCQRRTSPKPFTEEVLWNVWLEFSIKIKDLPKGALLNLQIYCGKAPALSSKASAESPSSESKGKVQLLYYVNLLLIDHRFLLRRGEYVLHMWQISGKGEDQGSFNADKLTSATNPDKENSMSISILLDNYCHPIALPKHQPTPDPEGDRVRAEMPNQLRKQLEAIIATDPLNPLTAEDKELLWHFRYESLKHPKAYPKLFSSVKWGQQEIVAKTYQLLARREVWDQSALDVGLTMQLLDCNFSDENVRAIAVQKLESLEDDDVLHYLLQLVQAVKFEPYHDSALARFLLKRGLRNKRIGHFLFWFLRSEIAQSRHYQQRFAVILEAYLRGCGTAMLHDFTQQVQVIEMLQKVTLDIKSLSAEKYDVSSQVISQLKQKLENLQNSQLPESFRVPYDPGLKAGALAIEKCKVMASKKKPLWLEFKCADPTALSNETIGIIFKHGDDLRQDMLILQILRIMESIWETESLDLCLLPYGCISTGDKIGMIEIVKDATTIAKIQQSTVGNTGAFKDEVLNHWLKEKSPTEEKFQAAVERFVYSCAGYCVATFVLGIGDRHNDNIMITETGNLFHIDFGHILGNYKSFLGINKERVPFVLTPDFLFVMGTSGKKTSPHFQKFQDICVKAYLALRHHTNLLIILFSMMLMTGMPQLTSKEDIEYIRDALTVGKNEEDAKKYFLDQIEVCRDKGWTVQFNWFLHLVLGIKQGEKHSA
In short: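 Luminescent ATP-depletion (Kinase-Glo) assay with 150 nM PI3Kγ, 1 μM ATP and 10 μg/mL phosphatidylinositol in 10 mM Tris-HCl pH 7.5, 3 mM MgCl2, 50 mM NaCl, 0.05% CHAPS, 1 mM DTT; 120 min at room temperature. Eight-point dilutions; IC50 by four-parameter logistic fit.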

SMILES	IC50 [1] [nM]	solubility (Solubility at pH 6.8) [µg/mL]	Papp A→B [2] [×10⁻⁶ cm/s]	IC50 [3] [nM]	IC50 (PI3K gamma) [nM]
Cc1nn(C)cc1-n1c(=O)n(C)c2cnc3ccc(-c4ccc(N5CCN(C)CC5)nc4)cc3c21 [Example 96, 1-(1,3-Dimethyl-1H-pyrazol-4-yl)-3-methyl-8-[6-(4-methyl-piperazin-1-yl)-pyridin-3-yl]-1,3-dihydro-imidazo[4,5-c]quinolin-2-one]	60	> 469	6	12	
COc1ccc(-c2ccc3ncc4c(c3c2)n(-c2cn(CC(=O)N(C)C)nc2C)c(=O)n4C)cn1 [Example 102, 2-{4-[8-(6-Methoxy-pyridin-3-yl)-3-methyl-2-oxo-2,3-dihydro-imidazo[4,5-c]quinolin-1-yl]-3-methyl-pyrazol-1-yl}-N,N-dimethyl-acetamide]	78	7 (≈ 14.8 µM)	7.7	33	246
CCn1cc(-n2c(=O)n(C)c3cnc4ccc(-c5ccc(COC)nc5)cc4c32)c(C)n1 [Example 104, 1-(1-Ethyl-3-methyl-1H-pyrazol-4-yl)-8-(6-methoxymethyl-pyridin-3-yl)-3-methyl-1,3-dihydro-imidazo[4,5-c]quinolin-2-one]	110	4 (≈ 9.33 µM)	20.5	71	582
